Patent publication US6380193B1, “Fused tricyclic compounds, methods and compositions for inhibiting PARP activity” (Guilford Pharmaceuticals Inc., priority 1998, dated 2002)

Tests used:
[1] = tested on: C57/BL male mice; assay: Septic shock assay (LPS plus galactosamine challenge); assay type: in vivo, mouse; settings: 60, 20, 6 and 2 mg/kg daily IP for three days, first dose 30 minutes after challenge
Description: Groups of 10 C57/BL male mice weighing 18 to 20 g were administered a test compound, 1-carboxynaphthalene-1-carboxamide at the doses of 60, 20, 6 and 2 mg/kg, daily, by intraperitoneal (IP) injection for three consecutive days. Each animal was first challenged with lipopolysaccharide (LPS, from E. Coli, LD100 of 20 mg/animal IV) plus galactosamine (20 mg/animal IV). The first dose of test compound in a suitable vehicle was given 30 minutes after challenge, and the second and third doses were given 24 hours later on day 2 and day 3 respectively, with only the surviving animals receiving the second or third dose of the test compound. Mortality was recorded every 12 hours after challenge for the three-day testing period. 1-Carboxy-naphthalene-1-carboxamide provided a protection against mortality from septic shock of about 40%.

[2] = tested on: cell viability, glucose metabolism, and DNA synthesis; settings: cited from earlier work
[3] = tested on: colitis in rats; settings: rat, in vivo; cited from earlier work
[4] = tested on: human fibroblast cells lines (W138 or BJ cells); assay: Proliferative capacity and lifespan of cells; assay type: cell-based
Description: At the time of subdivision, the media is aspirated, and the cells rinsed with phosphate buffer saline (PBS) and then trypsinized. The cells are counted with a Coulter counter and plated at a density of 10^5 cells per cm^2 in 6-well tissue culture plates in DMEM/199 medium supplemented with 10% bovine calf serum and varying amounts ([…]: from a 100× stock solution in DMEM/M199 medium) of a PARP inhibitor of Formula I as disclosed herein. This process is repeated every 7 days until the cell appear to stop dividing. The untreated (control) cells reach senescence and stop dividing after about 40 days in culture. […] The cells treated with 1 mM 3-AB will still divide after 60 days in culture.

[5] = tested on: endotoxic shock; settings: in vivo; cited from earlier work
[6] = tested on: focal cerebral ischemia in male Long-Evans rats; assay: Focal cerebral ischemia in rats (right distal MCA cauterization with bilateral temporary CCA occlusion), infarct by TTC staining; assay type: in vivo, rat
Description: Focal cerebral ischemia was produced by cauterization of the right distal MCA (middle cerebral artery) with bilateral temporary common carotid artery occlusion in male Long-Evans rats for 90 minutes. All procedures performed on the animals were approved by the University Institutional Animal Care and Use Committee of the University of Pennsylvania. A total of 42 rats (weights: 230-340 g) obtained from Charles River were used in this study. The animals fasted overnight with free access to water prior to the surgical procedure.
Two hours prior to MCA occlusion, varying amounts (control, n=14; 5 mg/kg, n=7; 10 mg/kg, n=7; 20 mg/kg, n=7; and 40 mg/kg, n=7) of the compound, 3,4-dihydro-5-[4-(1-piperidinyl)-butoxy]-1(2H)-isoquinolinone (“DPQ”) were dissolved in dimethyl sulfoxide (DMSO) using a sonicator. A volume of 1.28 ml/kg of the resulting solution was injected intraperitoneally into […].
Focal cerebral ischemia was produced by cauterization of the distal portion of the right MCA with bilateral temporary common carotid artery (CCA) occlusion by the procedure of Chen et al., “A Model of Focal Ischemic Stroke in the Rat: Reproducible Extensive Cortical Infarction”, Stroke 17:738-43 (1986) and/or Liu et al., “Polyethylene Glycol-conjugated Superoxide Dismutase and Catalase Reduce Ischemic Brain Injury”, Am. J. Physiol. 256:H589-93 (1989), both of which are hereby incorporated by reference. […]
Two hours after MCA occlusion, the animals were given the same doses of the PARP inhibitor as in the pre-treatment. […] To avoid artifacts due to edema, the damaged area was calculated by subtracting the area of the normal tissue in the hemisphere ipsilateral to the stroke from the area of the hemisphere contralateral to the stroke, by the method of Swanson et al., “A Semiautomated Method for Measuring Brain Infarct Volume”, J. Cereb. […] The total volume of infarction was calculated by summation of the damaged volume of the brain slices.

## NC(=O)C1(C(=O)O)CC=Cc2ccccc21 (centres unmarked) [1-Carboxy-naphthalene-1-carboxamide, 1-carboxynaphthalene-1-carboxamide]
[1]
  protection against mortality from septic shock: about 40%

## NC(=O)c1ccccc1 [benzamide]
[2]
  additional metabolic effects: shown to affect cell viability, glucose metabolism, and DNA synthesis

## NC(=O)c1cccc(N)c1 [3-aminobenzamide]
[3]
  inflammatory response, morphology and energetic status of the distal colon: reduced the inflammatory response and restored the morphology and the energetic status of the distal colon
[4]; 10 uM
  lifespan and proliferative capacity of the cells: little or no effect
[4]; 100 uM
  lifespan and proliferative capacity of the cells: lengthen the lifespan of the cells
[4]; 1 mM
  lifespan and proliferative capacity of the cells: dramatically increases the lifespan and proliferative capacity of the cells
[2]
  additional metabolic effects: shown to affect cell viability, glucose metabolism, and DNA synthesis

## NC(=O)c1cccnc1 [nicotinamide]
[5]
  delayed, NO-mediated vascular failure: protects against delayed, NO-mediated vascular failure in endotoxic shock

## O=C1NCCc2c(OCCCCN3CCCCC3)cccc21 [DPQ, 3,4-dihydro-5-[4-(1-piperidinyl)-butoxy]-1(2H)-isoquinolinone]
[6]; 5 mg/kg
  cross-sectional infarct area curve (FIG. 1): approximately halfway between the control and the 10 mg/kg curves
[6]; 20 mg/kg
  cross-sectional infarct area curve (FIG. 1): approximately halfway between the control and the 10 mg/kg curves
[6]; 40 mg/kg
  cross-sectional infarct area curve (FIG. 1): close to the control
